# Results reported in patent US8686002B2, “Heterocyclic compounds and their use as binding partners for 5-HT5 receptors” (AbbVie Deutschland GmbH & Co. KG, priority 2005, dated 2014).
# Structures can show the parent of a compound that is named as a salt.
# Molecular target: 5-HT5A (Homo sapiens, UniProt P47898)
# Assay: Affinity of selected compounds for 5-HT5A (Ki)
# Assay type: binding
# Protocol: In both assays, different concentrations of the test substances are used and the Ki and IC50 values are determined.
# Sequence of 5-HT5A (P47898 whole entry): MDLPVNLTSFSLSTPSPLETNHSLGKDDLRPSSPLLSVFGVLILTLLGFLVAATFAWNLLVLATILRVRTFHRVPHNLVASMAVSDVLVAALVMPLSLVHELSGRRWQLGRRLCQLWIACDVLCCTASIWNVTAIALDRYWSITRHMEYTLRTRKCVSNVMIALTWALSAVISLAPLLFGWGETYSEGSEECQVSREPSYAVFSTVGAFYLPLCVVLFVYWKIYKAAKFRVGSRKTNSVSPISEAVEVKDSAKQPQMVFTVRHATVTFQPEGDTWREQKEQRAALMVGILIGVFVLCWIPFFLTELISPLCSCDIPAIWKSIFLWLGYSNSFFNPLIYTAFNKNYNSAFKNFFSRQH
row,Ki,SMILES
1,< 10 µM,"COc1cccc(OC)c1CN1Cc2ccccc2N=C1NCc1cccc2ccccc12 [Example 93, 3-(2,6-Dimethoxybenzyl)-N-(1-naphthylmethyl)-3,4-dihydroquinazolin-2-amine hydrochloride]"
2,< 0.3 µM,COc1ccccc1Cc1cc2cc(Cl)ccc2nc1N [Example 11]
3,< 0.3 µM,"COc1ccc2c(c1)CN(Cc1ccccc1OC)C(N)=N2 [Example 101, 6-Methoxy-3-(2-methoxybenzyl)-3,4-dihydroquinazolin-2-amine]"
